Data published in patent US7534871B2, “Preparation and use of carbohydrate-based bicyclic ring structures with antimicrobial and cytostatic activity” (Kemin Pharma B.V.B.A., priority 2004, dated 2009).
In brackets after ≈: the same amount, converted by molar mass. Read-outs that look alike come from different tables or passages of the source.

How the values were obtained:
[1] = test system: human T-lymphocyte cells (CEM/0); test: Cytostatic activity: inhibition of proliferation of CEM/0 cells; assay type: cell-based; conditions: CCRF-CEM, read-out: IC50 CEM/0
Procedure: (§1) The compounds were tested for anti-tumor activity via the inhibitory effects on the proliferation of murine leukemia cells (L1210/0), murine mammary carcinoma cells (FM3A), human T-lymphocyte cells (Molt4/C8, CEM/0) and human cervix carcinoma cells (HeLa).

[2] = test system: HSV-1 (KOS); test: Anti-viral activity: HSV-1-induced cytopathicity in human embryo fibroblast E6SM cell cultures; assay type: cell-based, herpes simplex virus (HSV); conditions: Human alphaherpesvirus 1, 50%
[3] = Cytotoxicity: inhibition of HEL cell growth (CC50); assay type: cell-based; conditions: human; concentration required to reduce cell growth by 50%; HEL cells, three days
Procedure: The medium was then replaced by MEM containing various concentrations of the test compound. After three days incubation at 37° C., when the cell monolayer was 70% confluent, the cell number was determined with the Coulter counter. The minimum cytotoxic concentration was defined as the concentration required to reduce cell growth by 50%.

[4] = test system: HIV-1 (IIIB); test: microbe, parasite or virus in culture; assay type: cell-based; conditions: Human immunodeficiency virus 1, IIIB, CCRF-CEM; concentration required to inhibit HIV-induced cytopathicity in human CEM cell cultures by 50%
[5] = test system: murine leukemia cells (L1210/0); test: Cytostatic activity: inhibition of proliferation of L1210/0 cells; assay type: cell-based; conditions: Mus musculus
Procedure: as §1

[6] = test system: HEL cells; test: Cytotoxicity: alteration of cell morphology (MCC); assay type: cell-based, human; conditions: minimum cytotoxic concentration that causes a microscopically detectable alteration of cell morphology
[7] = test system: human cervix carcinoma cells (HeLa); test: Cytostatic activity: inhibition of proliferation of HeLa cells; assay type: cell-based; conditions: 50% inhibitory concentration, cell proliferation
Procedure: as §1

[8] = test system: Candida albicans IHEM 10284 - ATCC 24433; test: Anti-fungal activity, Bioscreen C growth curve: Candida albicans (yeast); assay type: cell-based; conditions: for activity at 25 ppm: Candida albicans, ATCC24433, 35° C., 24 hours, negative control = 100, read-out: % of growth at a dose of 25 PPM compared to the negative control, Candida albicans IHEM 10284 - ATCC 24433
Procedure: (§2) For the determination of the anti-bacterial and anti-fungal activity the Bioscreen C Analyser Labsystems, Finland, was used. This is an automated reader-incubator. It measures growth continuously by vertical photometry (optical density), processes the data and provides a print out of the results. The area under the growth curve is automatically determined via the Biolink software.
The inoculum size of the yeast is standardized to 0.5-2.5×10^3 CFU/ml.
For bacteria, the 100-honey-well plates containing test chemical, Mueller-Hinton broth and inoculum (=sample) are incubated at 35° C. for 16 hours. Also wells without inoculum are incubated (=blanco). Yeasts are incubated 35° C. for 24 hours in RPMI 1640+MOPS buffer at 165 mM. Moulds also in RPMI 1640+MOPS buffer at 165 mM are incubated 25° C. for 5 days. All micro-organisms are screened against a known concentration of the reference antibiotics or antimycotics such as vancomycin, penicillin G, gentamicin or amphotericin B. The growth curve and the area under the growth curve can be determined using the Biolink software; this is illustrated in FIG. 1.
The area of the blanco is subtracted from the area of the sample, this number (delta) gives us an indication of the biological activity of the molecules tested and can be expressed as a % of growth at a specific dose compared to a negative control that has a value of 100, illustrated in FIG. 2. Screening of each dose of a specific compound is repeated 5 times. The dose used for all new molecules in all tests is 25 PPM or 25 μg/ml.
In Table 5 the anti-fungal activity is given for the new molecules. The micro-organisms used were Candida albicans (a typical yeast) and Microsporum gypseum (a typical mold).
as §2, with “Also for” for “For”, “the” for “the anti-bacterial and”, “Labsystems Oy, Finland” for “Labsystems, Finland,”, “used.” for “used. This is an automated reader-incubator.”
The inoculum size of the yeast is standardized to 0.5-2.5×10^3 CFU/ml. The inoculum size of the mould is standardized to 0.4-5.0×10^4 CFU/ml. Yeasts are incubated 35° C. for 24 hours in RPMI 1640+MOPS buffer at 165 mM. Moulds also in RPMI 1640+MOPS buffer at 165 mM are incubated 25° C. for 5 days.
As a control, all micro-organisms are screened against some reference antibiotics with known MIC. Screening of each dose of a specific compound is repeated 5 times.

[9] = test system: CMV AD-169 strain; test: Anti-CMV activity: plaque reduction in HEL cells, AD-169 strain; assay type: cell-based, human cytomegalovirus (CMV); conditions: for IC50: Human betaherpesvirus 5, AD169, HEL, Table 2, reduce virus plaque formation by 50%, virus input 100 PFU, read-out: IC50 CMV AD-169 Strain
[10] = test system: L1210/0, FM3A, Molt4/C8, CEM/0 and HeLa cells; test: Cytostatic studies, conclusion over the panel of cell lines; assay type: cell-based, murine and human; conditions: conclusion in text on Table 3
Procedure: as §1

[11] = test system: CMV Davis strain; test: Anti-CMV activity: plaque reduction in HEL cells, Davis strain; assay type: cell-based, human cytomegalovirus (CMV); conditions: Human betaherpesvirus 5, HEL; Table 2; reduce virus plaque formation by 50%; virus input 100 PFU; read-out: IC50 CMV David strain
[12] = 50% inhibitory concentration, cell proliferation
[13] = L1210/0, 50% inhibitory concentration, cell proliferation, read-out: IC50 L1210/0

Structure (SMILES)	IC50 [1, 12] [µg/mL]	EC50 [2] [µg/mL]	CC50 at 3 days [3] [µg/mL]	EC50 [4] [µg/mL]	IC50 [5, 13] [µg/mL]	Cytotoxicity Cell morphology (MCC) [6] [μg/ml]	IC50 [7] [µg/mL]	activity at 25 ppm [8] [%]	activity against a yeast, in words ([8]; conclusion in text on Table 5)	IC50 [9] [µg/mL]	anti-viral activity against CMV, in words ([9]; strain not named)	melting point [°C]	cytostatic activity, in words [10]	IC50 [11] [µg/mL]	IC50 [1] [µg/mL]	IC50 ([5]; L1210/0, read-out: IC50 L1210/0) [µg/mL]
CO[C@@H]1[C@@H](OC)[C@H](c2ccccc2)O[C@@H]2CO[C@@H](c3ccccc3)O[C@@H]12 [KPE00001015]	81 ± 10 (≈ 227 µM)	> 80	> 50	> 4	≥ 200	50	104 ± 65 (≈ 292 µM)	66.6	best activity	–	–	–	–	–	–	–
CO[C@@H]1[C@@H](OC)[C@H](Sc2ccccc2)O[C@@H]2COC(=O)CCCC/C=C/CCCCC(=O)O[C@@H]12 [KPE00001016.1]	23 ± 0.5 (≈ 46.7 µM)	> 3.2	–	> 4	20 ± 7 (≈ 40.6 µM)	–	19 ± 5 (≈ 38.6 µM)	98.4	–	10 (≈ 20.3 µM)	especially active	60 to 61	good cytostatic activity	10 (≈ 20.3 µM)	–	–
CO[C@@H]1[C@@H](OC)[C@H](Sc2ccccc2)O[C@@H]2COC(=O)CCCC/C=C\CCCCC(=O)O[C@@H]12 [KPE00001016.2]	36 ± 16 (≈ 73.1 µM)	> 3.2	–	> 100	158 ± 10 (≈ 321 µM)	–	169 ± 44 (≈ 343 µM)	85	–	> 20	–	87 to 88	–	> 20	–	–
CO[C@@H]1[C@@H](OC)[C@H](Cc2ccccc2)O[C@@H]2CO[C@@H](c3ccccc3)O[C@@H]12 [KPE00001019]	≥ 200	> 80	> 50	> 100	> 200	20	> 200	98.5	–	–	–	–	–	–	–	–
CO[C@@H]1[C@@H](OC)[C@H](Cc2ccccc2)O[C@@H]2COC(=O)CC/C=C/CCC(=O)O[C@@H]12 [KPE00001022]	–	> 80	–	> 20	–	–	~167 (≈ 399 µM)	91.5	–	> 5	–	–	good cytostatic activity	–	48 ± 15 (≈ 115 µM)	80 (≈ 191 µM)
CO[C@@H]1[C@@H](OC)[C@H](Cc2ccccc2)O[C@@H]2COC(=O)CCCCCCCCC=CCCCCCCCCC(=O)O[C@@H]12 [KPE00001031E]	≥ 200	≥ 400	–	> 100	> 200	–	> 200	88.3	–	> 5	–	45 to 46	–	–	–	–
